Measured values taken from ChEMBL document CHEMBL4715724, “Novel 5-substituted-2-anilinoquinolines with 3-(morpholino or 4-methylpiperazin-1-yl)propoxy moiety as broad spectrum antiproliferative agents: Synthesis, cell based assays and kinase screening” (Bioorg Med Chem Lett, 2016).

Key:
COLO 205 = assay: Growth inhibition of human COLO 205 cells assessed as growth percentage at 10 uM measured after 48 hrs by sulforhodamine B assay relative to control; type: functional; details: read-out: Activity
M14 = assay: Growth inhibition of human M14 cells assessed as growth percentage at 10 uM measured after 48 hrs by sulforhodamine B assay relative to control; type: functional; details: read-out: Activity
CCRF-CEM = assay: cells; type: functional; details: Homo sapiens, time 48 hrs
Description: Growth inhibition of human CCRF-CEM cells incubated for 48 hrs by sulforhodamine B assay

K562 = assay: cells; type: functional; details: Homo sapiens, time 48 hrs
Description: Growth inhibition of human K562 cells incubated for 48 hrs by sulforhodamine B assay

A549 = assay: cells; type: functional; details: Homo sapiens, time 48 hrs
Description: Growth inhibition of human A549/ATCC cells incubated for 48 hrs by sulforhodamine B assay

HOP-62 = assay: cells; type: functional; details: Homo sapiens, time 48 hrs
Description: Growth inhibition of human HOP-62 cells incubated for 48 hrs by sulforhodamine B assay

HOP-92 = assay: cells; type: functional; details: Homo sapiens, time 48 hrs
Description: Growth inhibition of human HOP-92 cells incubated for 48 hrs by sulforhodamine B assay

NCI-H226 = assay: cells; type: functional; details: Homo sapiens, time 48 hrs
Description: Growth inhibition of human NCI-H226 cells incubated for 48 hrs by sulforhodamine B assay

NCI-H23 = assay: cells; type: functional; details: Homo sapiens, time 48 hrs
Description: Growth inhibition of human NCI-H23 cells incubated for 48 hrs by sulforhodamine B assay

NCI-H322M = assay: cells; type: functional; details: Homo sapiens, time 48 hrs
Description: Growth inhibition of human NCI-H322M cells incubated for 48 hrs by sulforhodamine B assay

NCI-H460 = assay: cells; type: functional; details: Homo sapiens, time 48 hrs
Description: Growth inhibition of human NCI-H460 cells incubated for 48 hrs by sulforhodamine B assay

NCI-H522 = assay: cells; type: functional; details: Homo sapiens, time 48 hrs
Description: Growth inhibition of human NCI-H522 cells incubated for 48 hrs by sulforhodamine B assay

HCT-116 = assay: cells; type: functional; details: Homo sapiens, time 48 hrs
Description: Growth inhibition of human HCT-116 cells incubated for 48 hrs by sulforhodamine B assay

HCT-15 = assay: cells; type: functional; details: Homo sapiens, time 48 hrs
Description: Growth inhibition of human HCT-15 cells incubated for 48 hrs by sulforhodamine B assay

HT-29 = assay: cells; type: functional; details: Homo sapiens, time 48 hrs
Description: Growth inhibition of human HT-29 cells incubated for 48 hrs by sulforhodamine B assay

KM12 = assay: cells; type: functional; details: Homo sapiens, time 48 hrs
Description: Growth inhibition of human KM12 cells incubated for 48 hrs by sulforhodamine B assay

SF-295 = assay: cells; type: functional; details: Homo sapiens, time 48 hrs
Description: Growth inhibition of human SF-295 cells incubated for 48 hrs by sulforhodamine B assay

U-251 = assay: cells; type: functional; details: Homo sapiens, time 48 hrs
Description: Growth inhibition of human U-251 cells incubated for 48 hrs by sulforhodamine B assay

LOX IMVI [1] = assay: cells; type: functional; details: Homo sapiens, time 48 hrs
Description: Growth inhibition of human LOX IMVI cells incubated for 48 hrs by sulforhodamine B assay

SK-MEL-28 = assay: cells; type: functional; details: Homo sapiens, time 48 hrs
Description: Growth inhibition of human SK-MEL-28 cells incubated for 48 hrs by sulforhodamine B assay

UACC-257 = assay: cells; type: functional; details: Homo sapiens, time 48 hrs
Description: Growth inhibition of human UACC-257 cells incubated for 48 hrs by sulforhodamine B assay

UACC-62 = assay: cells; type: functional; details: Homo sapiens, time 48 hrs
Description: Growth inhibition of human UACC-62 cells incubated for 48 hrs by sulforhodamine B assay

IGROV-1 = assay: cells; type: functional; details: Homo sapiens, time 48 hrs
Description: Growth inhibition of human IGROV-1 cells incubated for 48 hrs by sulforhodamine B assay

OVCAR-3 = assay: cells; type: functional; details: Homo sapiens, time 48 hrs
Description: Growth inhibition of human OVCAR-3 cells incubated for 48 hrs by sulforhodamine B assay

OVCAR-4 = assay: cells; type: functional; details: Homo sapiens, time 48 hrs
Description: Growth inhibition of human OVCAR-4 cells incubated for 48 hrs by sulforhodamine B assay

OVCAR-8 = assay: cells; type: functional; details: Homo sapiens, time 48 hrs
Description: Growth inhibition of human OVCAR-8 cells incubated for 48 hrs by sulforhodamine B assay

A498 = assay: cells; type: functional; details: Homo sapiens, time 48 hrs
Description: Growth inhibition of human A498 cells incubated for 48 hrs by sulforhodamine B assay

RXF 393 = assay: cells; type: functional; details: Homo sapiens, time 48 hrs
Description: Growth inhibition of human RXF 393 cells incubated for 48 hrs by sulforhodamine B assay

TK-10 = assay: cells; type: functional; details: Homo sapiens, time 48 hrs
Description: Growth inhibition of human TK-10 cells incubated for 48 hrs by sulforhodamine B assay

UO-31 = assay: cells; type: functional; details: Homo sapiens, time 48 hrs
Description: Growth inhibition of human UO-31 cells incubated for 48 hrs by sulforhodamine B assay

PC-3 = assay: cells; type: functional; details: Homo sapiens, time 48 hrs
Description: Growth inhibition of human PC-3 cells incubated for 48 hrs by sulforhodamine B assay

MCF7 = assay: cells; type: functional; details: Homo sapiens, time 48 hrs
Description: Growth inhibition of human MCF7 cells incubated for 48 hrs by sulforhodamine B assay

MDA-MB-231 = assay: cells; type: functional; details: Homo sapiens, time 48 hrs
Description: Growth inhibition of human MDA-MB-231/ATCC cells incubated for 48 hrs by sulforhodamine B assay

Hs-578T = assay: cells; type: functional; details: Homo sapiens, time 48 hrs
Description: Growth inhibition of human Hs-578T cells incubated for 48 hrs by sulforhodamine B assay

MDA-MB-468 = assay: cells; type: functional; details: Homo sapiens, time 48 hrs
Description: Growth inhibition of human MDA-MB-468 cells incubated for 48 hrs by sulforhodamine B assay

[2] = Cytotoxicity against human HFF-1 cells assessed as cell growth inhibition at 10 uM by MTT assay relative to control; type: cell-based; details: read-out: GI
[3] = Cytotoxicity against human HFF-1 cells assessed as cell growth inhibition at 1 uM by MTT assay relative to control; type: cell-based; details: read-out: GI
[4] = Cytotoxicity against human HFF-1 cells assessed as cell growth inhibition at 0.1 uM by MTT assay relative to control; type: cell-based; details: read-out: GI
[5] = Cytotoxicity against human HFF-1 cells assessed as cell growth inhibition by MTT assay; type: cell-based
LOX IMVI [6] = assay: Growth inhibition of human LOX IMVI cells assessed as growth percentage at 10 uM measured after 48 hrs by sulforhodamine B assay relative to control; type: functional; details: read-out: Activity
[7] = tested on: Panel leukemia (Carcinoma cell lines); assay: cells; type: functional; details: Homo sapiens, time 48 hrs
Description: Growth inhibition of human Panel leukemia (Carcinoma cell lines) incubated for 48 hrs by sulforhodamine B assay

cells = type: functional; details: Homo sapiens, Non-small cell lung cancer cell line; time 48 hrs
Description: Growth inhibition of human Non-small cell lung cancer cell line incubated for 48 hrs by sulforhodamine B assay

[8] = tested on: Panel colon (Carcinoma cell lines); assay: cells; type: functional; details: Homo sapiens, time 48 hrs
Description: Growth inhibition of human Panel colon (Carcinoma cell lines) incubated for 48 hrs by sulforhodamine B assay

[9] = tested on: Panel CNS (Carcinoma cell lines); assay: cells; type: functional; details: Homo sapiens, time 48 hrs
Description: Growth inhibition of human Panel CNS (Carcinoma cell lines) incubated for 48 hrs by sulforhodamine B assay

[10] = tested on: Panel melanoma (Carcinoma cell lines); assay: cells; type: functional; details: Homo sapiens, time 48 hrs
Description: Growth inhibition of human Panel melanoma (Carcinoma cell lines) incubated for 48 hrs by sulforhodamine B assay

[11] = tested on: Panel ovarian (Carcinoma cell lines); assay: cells; type: functional; details: Homo sapiens, time 48 hrs
Description: Growth inhibition of human Panel ovarian (Carcinoma cell lines) incubated for 48 hrs by sulforhodamine B assay

[12] = tested on: Panel renal (Carcinoma cell lines); assay: cells; type: functional; details: Homo sapiens, time 48 hrs
Description: Growth inhibition of human Panel renal (Carcinoma cell lines) incubated for 48 hrs by sulforhodamine B assay

[13] = tested on: Panel prostate (Carcinoma cell lines); assay: cells; type: functional; details: Homo sapiens, time 48 hrs
Description: Growth inhibition of human Panel prostate (Carcinoma cell lines) incubated for 48 hrs by sulforhodamine B assay

[14] = tested on: Panel breast (Carcinoma cell lines); assay: cells; type: functional; details: Homo sapiens, time 48 hrs
Description: Growth inhibition of human Panel breast (Carcinoma cell lines) incubated for 48 hrs by sulforhodamine B assay

[15] = tested on: Panel NCI-60 (60 carcinoma cell lines); assay: cells; type: functional; details: Homo sapiens, time 48 hrs
Description: Growth inhibition of human Panel NCI-60 (60 carcinoma cell lines) incubated for 48 hrs by sulforhodamine B assay

SR = assay: cells; type: functional; details: Homo sapiens, time 48 hrs
Description: Growth inhibition of human SR cells incubated for 48 hrs by sulforhodamine B assay

SNB-75 = assay: cells; type: functional; details: Homo sapiens, time 48 hrs
Description: Growth inhibition of human SNB-75 cells incubated for 48 hrs by sulforhodamine B assay

786-0 = assay: Growth inhibition of human 786-0 cells assessed as growth percentage at 10 uM measured after 48 hrs by sulforhodamine B assay relative to control; type: functional; details: read-out: Activity
[16] = read-out: LC50 (the source's name)

In the case of `Fc1ccc(Nc2ccc3c(OCCCN4CCOCC4)cccc3n2)cc1F`, the growth at 10 µM (COLO 205) is reported as 66.5%.

With `CC(C)c1ccc(Nc2ccc3c(OCCCN4CCOCC4)cccc3n2)cc1` the growth at 10 µM (M14) was 59.8%.

`CN1CCN(CCCOc2cccc3nc(Nc4cc(Cl)cc(Cl)c4)ccc23)CC1` showed a GI50 (CCRF-CEM) of 1780 nM, a GI50 (K562) of 1660 nM and a GI50 (A549) of 1980 nM. For the same compound, the GI50 (HOP-62) was 1370 nM, the GI50 (HOP-92) was 1590 nM and the GI50 (NCI-H226) was 1950 nM. It also gave a GI50 (NCI-H23) of 1720 nM, a GI50 (NCI-H322M) of 1560 nM and a GI50 (NCI-H460) of 1840 nM. For the same compound, the GI50 (NCI-H522) was 1640 nM, the GI50 (HCT-116) was 1940 nM and the GI50 (HCT-15) was 1420 nM. For the same compound, the GI50 (HT-29) was 1410 nM, the GI50 (KM12) was 1720 nM and the GI50 (SF-295) was 1720 nM. The GI50 (U-251) was 1720 nM, the GI50 (LOX IMVI [1]) was 1580 nM and the GI50 (SK-MEL-28) was 1670 nM. The GI50 (UACC-257) was 1970 nM, the GI50 (UACC-62) was 1950 nM and the GI50 (IGROV-1) was 1680 nM. The GI50 (OVCAR-3) was 1680 nM, the GI50 (OVCAR-4) was 2550 nM and the GI50 (OVCAR-8) was 1940 nM. The GI50 (A498) was 1780 nM, the GI50 (RXF 393) was 1670 nM and the GI50 (TK-10) was 1740 nM. It also gave a GI50 (UO-31) of 1490 nM, a GI50 (PC-3) of 1760 nM and a GI50 (MCF7) of 1380 nM. The GI50 (MDA-MB-231) was 1570 nM, the GI50 (Hs-578T) was 2500 nM and the GI50 (MDA-MB-468) was 1690 nM. The inhibition at 10 µM [2] was 13.3%, the inhibition at 1 µM [3] was 12% and the inhibition at 0.1 µM [4] was 12.5%. For the same compound, the GI50 [5] was > 10000 nM, the growth at 10 µM (LOX IMVI [6]) was -5.27% and the GI50 [7] was 1800 nM. The LC50 (50% lethal concentration) [7] was 100000 nM, the TGI [7] was 3960 nM and the GI50 (cells) was 1710 nM. It also gave an LC50 (50% lethal concentration) (cells) of 8150 nM, a TGI (cells) of 3510 nM and a GI50 [8] of 1680 nM. For the same compound, the TGI [8] was 3190 nM, the CC50 [8, 16] was 6100 nM and the GI50 [9] was 1720 nM. The TGI [9] was 3260 nM, the CC50 [9, 16] was 6200 nM and the GI50 [10] was 1800 nM. The LC50 [10] was 6620 nM, the TGI [10] was 3430 nM and the GI50 [11] was 1870 nM. For the same compound, the LC50 [11] was 9180 nM, the TGI [11] was 4100 nM and the GI50 [12] was 2070 nM. For the same compound, the LC50 (lethal concentration 50%) [12] was 17100 nM, the TGI [12] was 5560 nM and the GI50 [13] was 1730 nM. The LC50 (concentration killing 50% of cells) [13] was 5960 nM, the TGI [13] was 3210 nM and the GI50 [14] was 2060 nM. It also gave a TGI [14] of 5670 nM, a CC50 [14, 16] of 21800 nM and a GI50 [15] of 1770 nM. For the same compound, the TGI [15] was 3720 nM and the CC50 [15, 16] was 8320 nM.

`Fc1cc(Nc2ccc3c(OCCCN4CCOCC4)cccc3n2)ccc1Cl` showed a GI50 (CCRF-CEM) of 2480 nM, a GI50 (K562) of 1910 nM and a GI50 (SR) of 1690 nM. The GI50 (A549) was 2960 nM, the GI50 (HOP-62) was 1710 nM and the GI50 (HOP-92) was 2400 nM. The GI50 (NCI-H226) was 2760 nM, the GI50 (NCI-H23) was 2210 nM and the GI50 (NCI-H322M) was 2530 nM. For the same compound, the GI50 (NCI-H460) was 3070 nM, the GI50 (NCI-H522) was 1720 nM and the GI50 (HCT-116) was 2760 nM. It also gave a GI50 (HCT-15) of 1400 nM, a GI50 (HT-29) of 1530 nM and a GI50 (KM12) of 2300 nM. For the same compound, the GI50 (SF-295) was 1970 nM, the GI50 (SNB-75) was 1860 nM and the GI50 (U-251) was 1850 nM. The GI50 (LOX IMVI [1]) was 1710 nM, the GI50 (SK-MEL-28) was 1820 nM and the GI50 (UACC-257) was 2180 nM. It also gave a GI50 (UACC-62) of 2320 nM, a GI50 (IGROV-1) of 3190 nM and a GI50 (OVCAR-3) of 3080 nM. It also gave a GI50 (OVCAR-4) of 3750 nM, a GI50 (OVCAR-8) of 4030 nM and a GI50 (A498) of 2420 nM. The GI50 (RXF 393) was 2160 nM, the GI50 (TK-10) was 2010 nM and the GI50 (UO-31) was 1650 nM. It also gave a GI50 (PC-3) of 2080 nM, a GI50 (MCF7) of 1680 nM and a GI50 (MDA-MB-231) of 1530 nM. For the same compound, the GI50 (Hs-578T) was 2190 nM, the GI50 (MDA-MB-468) was 2080 nM and the GI50 [7] was 2180 nM. For the same compound, the GI50 (cells) was 2410 nM, the GI50 [8] was 1970 nM and the GI50 [9] was 2160 nM. For the same compound, the GI50 [10] was 2010 nM, the GI50 [11] was 3070 nM and the GI50 [12] was 2420 nM. For the same compound, the GI50 [13] was 2850 nM, the GI50 [14] was 2480 nM and the GI50 [15] was 2240 nM.

With `FC(F)(F)c1cc(Nc2ccc3c(OCCCN4CCOCC4)cccc3n2)ccc1Cl` the GI50 (CCRF-CEM) was 1630 nM, the GI50 (K562) was 2140 nM and the GI50 (SR) was 2140 nM. For the same compound, the GI50 (HOP-62) was 1870 nM, the GI50 (HOP-92) was 1240 nM and the GI50 (NCI-H226) was 3540 nM. The GI50 (NCI-H23) was 2000 nM, the GI50 (NCI-H322M) was 2520 nM and the GI50 (NCI-H460) was 2750 nM. For the same compound, the GI50 (HCT-116) was 2070 nM, the GI50 (HCT-15) was 1640 nM and the GI50 (HT-29) was 1740 nM. For the same compound, the GI50 (KM12) was 2070 nM, the GI50 (SF-295) was 1890 nM and the GI50 (SNB-75) was 1890 nM. For the same compound, the GI50 (U-251) was 1800 nM, the GI50 (LOX IMVI [1]) was 1730 nM and the GI50 (SK-MEL-28) was 1850 nM. The GI50 (UACC-62) was 2050 nM, the GI50 (IGROV-1) was 3960 nM and the GI50 (OVCAR-3) was 2020 nM. For the same compound, the GI50 (OVCAR-4) was 3070 nM, the GI50 (OVCAR-8) was 4330 nM and the GI50 (A498) was 3120 nM. It also gave a GI50 (RXF 393) of 1780 nM, a GI50 (TK-10) of 3490 nM and a GI50 (UO-31) of 1630 nM. It also gave a GI50 (PC-3) of 2260 nM, a GI50 (MCF7) of 1660 nM and a GI50 (MDA-MB-231) of 1820 nM. It also gave a GI50 (Hs-578T) of 2970 nM, a GI50 (MDA-MB-468) of 2170 nM and a growth at 10 µM (786-0) of 37.8%. The GI50 [7] was 1930 nM, the GI50 (cells) was 2320 nM and the GI50 [8] was 1850 nM. It also gave a GI50 [9] of 1960 nM, a GI50 [10] of 1950 nM and a GI50 [11] of 3010 nM. It also gave a GI50 [12] of 2510 nM, a GI50 [13] of 2520 nM and a GI50 [14] of 2210 nM. It also gave a GI50 [15] of 2190 nM.
